We go through two compounds from US20130079408A1, “PERACID AND 2-HYDROXY ORGANIC ACID COMPOSITIONS AND METHODS FOR TREATING ITEMS” (Fresh Express Incorporated, priority 2009, published 2013).

Molecules are shown by their SMILES.

Series [1] has as its system Pseudomonas aeruginosa (ATCC 9027). Put plainly: Non-food surface coupon test (Example 6). In kind it is cell-based. Particulars: 90 sec residence time.
In series [2] the test system is Listeria innocua ATCC 33090. The series is described as follows: Suspended cells challenge test at 20 s residence time, no surfactant (Example 2). Particulars: Peroxyacetic acid 0 ppm. Type of series: cell-based.
Series [3] has as its system Lactobacillus plantarum 14917. Described as above. Type of series: cell-based. Particulars: Peroxyacetic acid 0 ppm.
For series [4], the system named is E. coli K12. Put plainly: Attached cells challenge test on produce leaves (Example 1). In kind it is cell-based. Particulars: PAA 0 ppm, 45 F, 45 s.
The test system of series [5] is Listeria innocua. The description is as above. In kind it is cell-based. Particulars: PAA 0 ppm, 45 F, 45 s.
The conditions of series [6]: 40 C; cited from earlier work.
In series [7] the test system is indigenous microorganisms (Aerobic Plate Counts). In kind it is cell-based.

With `CC(O)C(=O)O` (centres unmarked) [Lactic acid, lactic acid], the “Log reductions, attached on glass coupons” value is 0.4 in series [1] (PA 0 ppm, LA 1,250 ppm) and 1.7 in series [1] (PA 0 ppm, LA 2,500 ppm). The “Log reductions, attached on stainless steel coupons” value amounted to 1.6 in series [1] (PA 0 ppm, LA 1,250 ppm) and 1.9 in series [1] (PA 0 ppm, LA 2,500 ppm). For the same compound, the “Log reductions, attached on plastic coupons” value in series [1] (PA 0 ppm, LA 2,500 ppm) is on record as 0.6; in series [1] (PA 0 ppm, LA 5,000 ppm), 1.2. Further, the “Log reductions, attached on wood coupons” value in series [1] (PA 0 ppm, LA 2,500 ppm) was 1.4; in series [1] (PA 0 ppm, LA 7,500 ppm), 3.6. For the same compound, the entries for the “log reduction of suspended Listeria innocua cells” value in series [2] (Lactic Acid 2000 ppm), in series [2] (Lactic Acid 2500 ppm) and in series [2] (Lactic Acid 3000 ppm) were 0.08, 0.19 and 0.05, respectively. The “log reduction of suspended Lactobacillus plantarum cells” value is reported as 0.00 in series [3] (Lactic Acid 2000 ppm), 0.02 in series [3] (Lactic Acid 2500 ppm) and 0.01 in series [3] (Lactic Acid 3000 ppm). Further, the “Attached E. Coli, Romaine” value amounted to 0.24 in series [4] (LA 0.6%), 0.37 in series [4] (LA 0.9%) and 1.28 in series [4] (LA 1.2%). Further, the entries for the “Attached E. Coli, Spinach” value in series [4] (LA 0.6%), in series [4] (LA 0.9%) and in series [4] (LA 1.2%) were 0.09, 0.42 and 0.81, respectively. Besides, the “Attached Listeria, Romaine” value in series [5] (LA 0.6%) was 1.1; in series [5] (LA 0.9%), 1.4; in series [5] (LA 1.2%), 1.5. Moreover, the “Attached Listeria, Spinach” value was found to be 0.1 in series [5] (LA 0.6%), 0.2 in series [5] (LA 0.9%) and 0.2 in series [5] (LA 1.2%).

For `CC(=O)OO` [Peroxyacetic acid, peroxyacetic acid], in series [1] (PA 60 ppm, LA 0 ppm), the “Log reductions, attached on glass coupons” value is given as 0.2; the “Log reductions, attached on plastic coupons” value is reported as 1.2; the “Log reductions, attached on stainless steel coupons” value stood at 1.5. In series [1] (PA 80 ppm, LA 0 ppm), the “Log reductions, attached on glass coupons” value is on record as 0.0 and the “Log reductions, attached on plastic coupons” value was 0.9. For the same compound, in series [1] (PA 100 ppm, LA 0 ppm), the “Log reductions, attached on stainless steel coupons” value is on record as 1.4 and the “Log reductions, attached on wood coupons” value was 1.0. Also, in series [1] (PA 140 ppm, LA 0 ppm), the “Log reductions, attached on wood coupons” value came to 0.8. Also, the “apparent equilibrium constant Kap” value in series [6] is given as “about 2.21”. In series [7], the “Aerobic Plate Counts Log Reduction” value was found to be 0.7 Log cfu/g, the “Aerobic Plate Counts after wash” value turned out to be 2.7 Log cfu/g and the “log10 reduction of indigenous microorganism on the Romaine leaf” value is 0.7 log10.
